From patent publication US20080032959A1, “Estrogen Receptor Modulators” (priority 2004, published 2008)

Tests used:
Format in all cases: in vivo, mouse
[1] = tested on: Progesterone receptor (PR) protein in the dorsal raphe nucleus; test: Murine brain progestin receptor (PR) ICC assay, dorsal raphe nucleus; conditions: for PR induction in the dorsal raphe nucleus: βERKO mouse lacking functional ERβ, treated 3 days, E2 0.2 mg/kg, A 5 or 10 mg/kg, immunohistochemistry 24 h after last treatment
Experimental: (§1) Animals (n=5/group) were treated for 3 days and brains and uteri were collected 24 hours after the last treatment and processed for immunohistochemistry.
(§2) Female mice (12-16 wks of age) are ovariectomized by the vendor (C57BL/6s from Charles River) and shipped one week later. Animals are fed a soy-free rodent chow upon arrival at the Merck animal facility, where they are given an additional week to adjust to the new environment. […] Approximately 24 hours after the last dose, animals are deeply anesthetized with ketamine/xylazine and are transcardially perfused with 50 ml of 3.5% acrolein and 2% paraformaldehyde in 0.1 M sodium phosphate buffer (PB), pH 7.4. Brains are immediately removed and placed into ice cold 0.1 M PB and stored at 4 C overnight. Brains are sectioned at 40 μm on a vibrating microtome in 0.1M PB, transferred into cryoprotectant (30% sucrose; 30% ethylene glycol in 0.1 M PB, pH 7.4) and stored at −20° C. until processing for immunocytochemistry.
Free floating 40 μm sections are washed in cold 0.1 M phosphate buffered saline (PBS), pH 7.4, to thoroughly remove cryoprotectant. To insure consistent immunolabeling across animals, a screen-bottom 24-well tissue holder and fitted solid lucite tray containing buffer is used to conduct the experiment. Thus, all sections are co-incubated in the same solutions/conditions during the entire experiment. To deter non-specific staining in acrolein-fixed tissue, sections are washed in 1% sodium borohydride (NaBH4) in PBS for 30 minutes and rinsed 8 to 10 times with PBS. Endogenous peroxidase activity is inhibited by washing tissue in 0.3% hydrogen peroxide and 10% methanol in PBS for 15 minutes. Sections are washed in PBS and blocked in either 1) 2% normal goat serum in PBS with 0.05% Triton X-100 (PBST) for one hour, or 2) a mouse-on-mouse Ig blocking reagent (Vector) for 1 hour followed by a mouse protein concentrate (Vector) for 30 min. Sections are incubated with PR antibody in blocking buffer diluted to 1% normal serum over one night at RT and one night at 4 C, or three nights at 4 C. […]

[2] = tested on: PR immunoreactive cells in the hippocampus; test: Murine brain PR ICC assay, hippocampus (PR regulated exclusively by ERα); conditions: 3 days
Experimental: as §1, §2
Free floating 40 μm sections are washed in cold 0.1 M phosphate buffered saline (PBS), pH 7.4, to thoroughly remove cryoprotectant. To insure consistent immunolabeling across animals, a screen-bottom 24-well tissue holder and fitted solid lucite tray containing buffer is used to conduct the experiment. Thus, all sections are co-incubated in the same solutions/conditions during the entire experiment. […]

[3] = tested on: wild type and estrogen receptor beta knockout (βERKO) mice; test: Uterine weights after 3 days of treatment; conditions: treated 3 days, E2 0.2 mg/kg, A 5 or 10 mg/kg, uteri collected 24 hrs after last treatment
Experimental: Animals (n=5/group) were treated for 3 days and brain and uteri were collected 24 hrs after last treatment.

Row | Compound | ER-beta activity in brain ([1]; at the doses tested (A 5 or 10 mg/kg), 3 days) | PR induction in the dorsal raphe nucleus [1] | PR immunoreactive cells in the hippocampus ([2]; 5 mg/kg) | PR immunoreactive cells in the hippocampus ([2]; high dose 10 mg/kg) | uterine weight [3]
1 | C[C@]12CC[C@H]3[C@@H](CC=C4C[C@@H](O)CC[C@@]43C)[C@@H]1CC[C@@H]2O [A, delta-5-androstene-3-beta-17-beta-diol] | full ER-beta activity in brain | complete loss of PR induction | no PR immunoreactivity | just an occasional, lightly-stained cell | only a modest effect
2 | C[C@]12CC[C@@H]3c4ccc(O)cc4CC[C@H]3[C@@H]1CC[C@@H]2O [E2, 17β-estradiol, reference compound] | – | attenuation of PR induction | – | – | robustly increased uterine weight
